Tested on: cancer cells
Test: Proteomics study (up- and downregulated proteins)
Format: cell-based
Details: for Hydroxymethylglutaryl-CoA synthase, cytoplasmic (HMGCS1) protein: proteomics
Text: Proteomics provide a comprehensive understanding of mechanisms that are responsible for the cytotoxicity of anticancer drugs, and based on the expression of protein helps in identification of drug targets (see, Wang, Y.; et al., Met Based Drugs. 2008, 1-9). One of the disadvantages of proteomics is membrane-bound proteins due to their poor solubility and low abundance, are disproportionally represented in proteome profiles (see, Smith, C. Nature, 2004, 428, 225-231). Identification of target proteins utilizing proteomics technique coupled with mass spectrometry is an evolving technology platform that has the potential to identify novel proteins involved in key biological processes in cells. There are two mass spectrometry-based methods currently used for protein profiling. The use of high-resolution two-dimensional electrophoresis to separate proteins from different samples, followed by selection and staining of differentially expressed proteins to be identified by mass spectrometry is the more established method. In the second approach isotope coded affinity tag (ICAT) reagents are utilized to differentially label proteins from two different complex mixtures, that are then digested to yield labeled peptides. The labeled mixtures are then combined, the peptides separated by multidimensional liquid chromatography and analyzed by tandem mass spectrometry. In this method, complexity of the mixtures omitting the non-cysteine residues is reduced as here the cysteine residues of proteins get covalently attached to the ICAT reagent. Proteomics coupled with bioinformatics process the raw mass spectral data into protein data (see, Yu, L. R.; Essentials of Genomic and Personalized Medicine 2010, 89-96). The most critical software programs take peptide mapping and/or tandem MS results and determine the protein or peptide sequence that are most closely related to the experimental data. One of the more intriguing MS-based proteomic techniques is to identify the proteins which are overexpressed thus aids in identification of the target protein of the given drug. There are several examples reported in literature about successful application of Bru-seq and proteomics for identification of mechanism of action of drugs.
It is the second step in the mevalonate-dependent isoprenoid biosynthesis pathway. HMG-CoA is an intermediate in both cholesterol synthesis and ketogenesis. Thus, here the proteomics results are in accordance with the Bru-seq results, implying “cholesterol biosynthesis pathway” as key pathway activated by these series of compounds.
Among its related pathways are regulation of cholesterol biosynthesis by SREBP (SREBF) and terpenoid backbone biosynthesis.

[1] = protein: 28S ribosomal protein S16, mitochondrial, downregulated
[2] = protein: 28S ribosomal protein S17, mitochondrial, downregulated
[3] = protein: 28S ribosomal protein S18b, mitochondrial, downregulated
[4] = protein: 28S ribosomal protein S22, mitochondrial, downregulated
[5] = protein: 28S ribosomal protein S25, mitochondrial, downregulated
[6] = protein: 40S ribosomal protein S8, upregulated
[7] = protein: 40S ribosomal protein S26, upregulated
[8] = protein: 40S ribosomal protein S30, upregulated
[9] = protein: 60S ribosomal protein L19, upregulated
[10] = protein: 60S ribosomal protein L27a, upregulated
[11] = protein: 60S ribosomal protein L36a-like, upregulated
[12] = protein: 60S ribosomal protein L37, upregulated
[13] = protein: Aconitate hydratase, mitochondrial, downregulated
[14] = protein: Acyl-CoA desaturase, upregulated
[15] = protein: Alanine aminotransferase 2, upregulated
[16] = protein: Aldehyde dehydrogenase X, downregulated
[17] = protein: Apolipoprotein A-I, upregulated
[18] = protein: Apolipoprotein B-100, upregulated
[19] = protein: Apolipoprotein C-III, upregulated
[20] = protein: Beta-2-glycoprotein 1, upregulated
[21] = protein: Bleomycin hydrolase, upregulated
[22] = protein: Constitutive coactivator of peroxisome proliferator-activated receptor gamma, downregulated
[23] = protein: Copper-transporting ATPase 2, upregulated
[24] = protein: D-dopachrome decarboxylase, downregulated
[25] = protein: DNA topoisomerase 2-alpha, downregulated
[26] = protein: Deoxyribonuclease-2-alpha, upregulated
[27] = protein: Dermcidin, upregulated
[28] = protein: Diphthine methyltransferase, upregulated
[29] = protein: E3 ubiquitin-protein ligase TRIM69, upregulated
[30] = protein: Elongation factor G, mitochondrial, downregulated
[31] = protein: FAST kinase domain-containing protein 5, mitochondrial, downregulated
[32] = protein: Filamin-C, upregulated
[33] = protein: GH3 domain-containing protein, upregulated
[34] = protein: Histone H1.2, downregulated
[35] = protein: Hydroxymethylglutaryl-CoA synthase, cytoplasmic, upregulated
[36] = protein: Interleukin-36 beta, downregulated
[37] = protein: Iron-responsive element-binding protein 2, upregulated
[38] = protein: Keratin, type I cytoskeletal 20, downregulated
[39] = protein: Kinesin-like protein KIF27, upregulated
[40] = protein: LanC-like protein 2, downregulated
[41] = protein: MBT domain-containing protein 1, downregulated
[42] = protein: Mixed lineage kinase domain-like protein, upregulated
[43] = protein: Muellerian-inhibiting factor, upregulated
[44] = protein: NADH dehydrogenase [ubiquinone] 1 alpha subcomplex subunit 6, downregulated
[45] = protein: NADH dehydrogenase [ubiquinone] iron-sulfur protein 4, mitochondrial, downregulated
[46] = protein: NADH-ubiquinone oxidoreductase 75 kDa subunit, mitochondrial, downregulated
[47] = protein: Nucleolar transcription factor 1, downregulated
[48] = protein: Phosphatidylserine synthase 1, upregulated
[49] = protein: Proliferation marker protein Ki-67, downregulated
[50] = protein: Protein FAM83H, downregulated
[51] = protein: Protein FAM177A1, upregulated
[52] = protein: Protein PIMREG, upregulated
[53] = protein: Protein cornichon homolog 4, upregulated
[54] = protein: Putative ankyrin repeat domain-containing protein 31, upregulated
[55] = protein: RNA-binding motif protein, X chromosome, downregulated
[56] = protein: Scaffold attachment factor B1, downregulated
[57] = protein: Scaffold attachment factor B2, downregulated
[58] = protein: Sequestosome-1, upregulated
[59] = protein: Serine/threonine-protein kinase PLK4, upregulated
[60] = protein: Squalene synthase, upregulated
[61] = protein: Transcription elongation factor 1 homolog, downregulated

SMILES: CCN(CC)CCCC(C)Nc1cnc(C(=O)Nc2cc(C)cc3cccnc23)cn1 (stereo not drawn) [J4, 5-((5-(diethylamino)pentan-2-yl)amino)-N-(6-methylquinolin-8-yl)pyrazine-2-carboxamide]
- Abundance ratio [1]: 0.403
- Abundance ratio (log2) [1]: −1.31
- Abundance ratio [2]: 0.452
- Abundance ratio (log2) [2]: −1.15
- Abundance ratio [3]: 0.337
- Abundance ratio (log2) [3]: −1.57
- Abundance ratio [4]: 0.432
- Abundance ratio (log2) [4]: −1.21
- Abundance ratio [5]: 0.402
- Abundance ratio (log2) [5]: −1.32
- Abundance ratio [6]: 1.777
- Abundance ratio (log2) [6]: 0.83
- Abundance ratio [7]: 1.717
- Abundance ratio (log2) [7]: 0.78
- Abundance ratio [8]: 1.649
- Abundance ratio (log2) [8]: 0.72
- Abundance ratio [9]: 1.761
- Abundance ratio (log2) [9]: 0.82
- Abundance ratio [10]: 1.713
- Abundance ratio (log2) [10]: 0.78
- Abundance ratio [11]: 1.623
- Abundance ratio (log2) [11]: 0.7
- Abundance ratio [12]: 1.808
- Abundance ratio (log2) [12]: 0.85
- Abundance ratio [13]: 0.489
- Abundance ratio (log2) [13]: −1.03
- Abundance ratio [14]: 2.148
- Abundance ratio (log2) [14]: 1.1
- Abundance ratio [15]: 1.616
- Abundance ratio (log2) [15]: 0.69
- Abundance ratio [16]: 0.278
- Abundance ratio (log2) [16]: −1.85
- Abundance ratio [17]: 1.891
- Abundance ratio (log2) [17]: 0.92
- Abundance ratio [18]: 2.151
- Abundance ratio (log2) [18]: 1.1
- Abundance ratio [19]: 2.072
- Abundance ratio (log2) [19]: 1.05
- Abundance ratio [20]: 1.622
- Abundance ratio (log2) [20]: 0.7
- Abundance ratio [21]: 1.845
- Abundance ratio (log2) [21]: 0.88
- Abundance ratio [22]: 0.419
- Abundance ratio (log2) [22]: −1.25
- Abundance ratio [23]: 1.807
- Abundance ratio (log2) [23]: 0.85
- Abundance ratio [24]: 0.487
- Abundance ratio (log2) [24]: −1.04
- Abundance ratio [25]: 0.381
- Abundance ratio (log2) [25]: −1.39
- Abundance ratio [26]: 1.649
- Abundance ratio (log2) [26]: 0.72
- Abundance ratio [27]: 2.454
- Abundance ratio (log2) [27]: 1.3
- Abundance ratio [28]: 1.633
- Abundance ratio (log2) [28]: 0.71
- Abundance ratio [29]: 1.906
- Abundance ratio (log2) [29]: 0.93
- Abundance ratio [30]: 0.245
- Abundance ratio (log2) [30]: −2.03
- Abundance ratio [31]: 0.382
- Abundance ratio (log2) [31]: −1.39
- Abundance ratio [32]: 2.026
- Abundance ratio (log2) [32]: 1.02
- Abundance ratio [33]: 1.742
- Abundance ratio (log2) [33]: 0.8
- Abundance ratio [34]: 0.462
- Abundance ratio (log2) [34]: −1.11
- Abundance ratio [35]: 1.944
- Abundance ratio (log2) [35]: 0.96
- Abundance ratio [36]: 0.462
- Abundance ratio (log2) [36]: −1.12
- Abundance ratio [37]: 2.136
- Abundance ratio (log2) [37]: 1.09
- Abundance ratio [38]: 0.439
- Abundance ratio (log2) [38]: −1.19
- Abundance ratio [39]: 1.89
- Abundance ratio (log2) [39]: 0.92
- Abundance ratio [40]: 0.327
- Abundance ratio (log2) [40]: −1.61
- Abundance ratio (protein: Lumican, upregulated): 1.612
- Abundance ratio (log2) (protein: Lumican, upregulated): 0.69
- Abundance ratio [41]: 0.233
- Abundance ratio (log2) [41]: −2.1
- Abundance ratio [42]: 1.861
- Abundance ratio (log2) [42]: 0.9
- Abundance ratio [43]: 1.824
- Abundance ratio (log2) [43]: 0.87
- Abundance ratio [44]: 0.473
- Abundance ratio (log2) [44]: −1.08
- Abundance ratio [45]: 0.468
- Abundance ratio (log2) [45]: −1.1
- Abundance ratio [46]: 0.488
- Abundance ratio (log2) [46]: −1.03
- Abundance ratio [47]: 0.484
- Abundance ratio (log2) [47]: −1.05
- Abundance ratio [48]: 1.946
- Abundance ratio (log2) [48]: 0.96
- Abundance ratio [49]: 0.474
- Abundance ratio (log2) [49]: −1.08
- Abundance ratio [50]: 0.46
- Abundance ratio (log2) [50]: −1.12
- Abundance ratio [51]: 3.085
- Abundance ratio (log2) [51]: 1.63
- Abundance ratio [52]: 1.711
- Abundance ratio (log2) [52]: 0.77
- Abundance ratio [53]: 1.656
- Abundance ratio (log2) [53]: 0.73
- Abundance ratio [54]: 1.786
- Abundance ratio (log2) [54]: 0.84
- Abundance ratio [55]: 0.441
- Abundance ratio (log2) [55]: −1.18
- Abundance ratio [56]: 0.401
- Abundance ratio (log2) [56]: −1.32
- Abundance ratio [57]: 0.405
- Abundance ratio (log2) [57]: −1.3
- Abundance ratio [58]: 1.69
- Abundance ratio (log2) [58]: 0.76
- Abundance ratio [59]: 3.158
- Abundance ratio (log2) [59]: 1.66
- Abundance ratio [60]: 1.597
- Abundance ratio (log2) [60]: 0.68
- Abundance ratio [61]: 0.364
- Abundance ratio (log2) [61]: −1.46
- Hydroxymethylglutaryl-CoA synthase, cytoplasmic (HMGCS1) protein: upregulation
- Hydroxymethylglutaryl-CoA synthase, cytoplasmic (HMGCS1) protein (listed as JR-1-235): upregulated

Source: patent US20220081412A1, “QUINOLINYL-PYRAZINE-CARBOXAMIDE COMPOUNDS AND USES THEREOF” (The Regents of the University of Michigan, priority 2018, published 2022)
